Results as given in ChEMBL document CHEMBL6109071, “Chemical modification for improving drug-like molecular properties of climacostol, a natural resorcinolic lipid” (Bioorg Med Chem, 2025).
Values after ≈ are worked out from the molar mass of the structure shown. Active and inactive are the calls of the source. No cut-off for these calls is given here.

How the values were obtained:
Blepharisma japonicum [1] = experiment: Cytotoxicity against Blepharisma japonicum R1072 assessed as reduction in viability measured after 1 hr; format: functional
Euplotes aediculatus [2] = experiment: Cytotoxicity against Euplotes aediculatus clone EA-III assessed as reduction in viability measured after 1 hr; format: functional
[3] = system: Paramecium multimicronucleatum; experiment: Cytotoxicity against Paramecium multimicronucleatum clone TL-2 assessed as reduction in viability measured after 1 hr; format: functional
Paramecium tetraurelia [4] = experiment: Cytotoxicity against Paramecium tetraurelia stock 51 assessed as reduction in viability measured after 1 hr; format: functional
Spirostomum ambiguum = experiment: Cytotoxicity against Spirostomum ambiguum stock Pol-5 assessed as reduction in viability measured after 1 hr; format: functional
Spirostomum teres [5] = experiment: Cytotoxicity against Spirostomum teres stock Pol-1 assessed as reduction in viability measured after 1 hr; format: functional
Stentor polymorphus [6] = experiment: Cytotoxicity against Stentor polymorphus stock GF-1 assessed as reduction in viability measured after 1 hr; format: functional
Blepharisma japonicum [7] = experiment: Cytotoxicity against Blepharisma japonicum R1072 assessed as reduction in viability measured after 24 hrs; format: functional
Euplotes aediculatus [8] = experiment: Cytotoxicity against Euplotes aediculatus clone EA-III assessed as reduction in viability measured after 24 hrs; format: functional
[9] = system: Paramecium multimicronucleatum; experiment: Cytotoxicity against Paramecium multimicronucleatum clone TL-2 assessed as reduction in viability measured after 24 hrs; format: functional
Paramecium tetraurelia [10] = experiment: Cytotoxicity against Paramecium tetraurelia stock 51 assessed as reduction in viability measured after 24 hrs; format: functional
Spirostomum teres [11] = experiment: Cytotoxicity against Spirostomum teres stock Pol-1 assessed as reduction in viability measured after 24 hrs; format: functional
Stentor polymorphus [12] = experiment: Cytotoxicity against Stentor polymorphus stock GF-1 assessed as reduction in viability measured after 24 hrs; format: functional
[13] = Toxicity in Drosophila melanogaster Oregon-R assessed as change in larvae development by measuring reduction in developed third instar larvae at 100 ug/ml administered through feeding measured twice daily on day 8 to 9 post-treatment relative to control; set-up: scale not given: the % may be the effect or the level left; details: po, at 100 µg/mL, time 8-9 day
[14] = Toxicity in Drosophila melanogaster Oregon-R assessed as DNA fragmentation in digestive tract of third instar larvae at 100 ug/ml administered through feeding measured after day 8 to 9 by TUNEL/DAPI staining based confocal microscopy; details: po, time 8-9 day, dose 100 µg/ml
[15] = Toxicity in Drosophila melanogaster Oregon-R assessed as increase in cleaved caspase-3 in the cytoplasm of midgut cells of third instar larvae at 100 ug/ml administered through feeding measured after day 8 to 9 by DAPI immunostaining based confocal microscopy; format: tissue-based; details: po, time 8-9 day, dose 100 µg/ml
SH-SY5Y [16] = experiment: Cytotoxicity against human SH-SY5Y cells assessed as reduction in cell viability measured after 24 hrs by MTT assay; format: functional, cell-based
SH-SY5Y [17] = experiment: Cytotoxicity against human SH-SY5Y cells assessed as cell death at 10 ug/ml measured after 24 hrs by MTT assay relative to control; format: functional
SH-SY5Y [18] = experiment: Cytotoxicity against human SH-SY5Y cells assessed as reduction in cell viability at 30 ug/ml measured after 3 hrs by MTT assay relative to control; format: functional
SH-SY5Y [19] = experiment: Induction of apoptosis in human SH-SY5Y cells assessed as increase in caspase-3 expression at 10 to 30 ug/ml measured after 9 hrs by immunostaining based confocal microscopy; format: functional, cell-based; details: dose 10-30 µg/ml
SH-SY5Y [20] = experiment: Induction of apoptosis in human SH-SY5Y cells assessed as cytoplasmic shrinkage at 10 to 30 ug/ml measured after 9 hrs by DAPI/phalloidin staining based confocal microscopy; format: functional, cell-based; details: dose 10-30 µg/ml
SH-SY5Y [21] = experiment: Induction of apoptosis in human SH-SY5Y cells assessed as chromatin condensation at 10 to 30 ug/ml measured after 9 hrs by DAPI/phalloidin staining based confocal microscopy; format: functional, cell-based; details: dose 10-30 µg/ml
SH-SY5Y [22] = experiment: Induction of apoptosis in human SH-SY5Y cells assessed as altered roundness of nuclear area at 10 to 30 ug/ml measured after 9 hrs by DAPI/phalloidin staining based confocal microscopy; format: functional, cell-based; details: dose 10-30 µg/ml
SH-SY5Y [23] = experiment: Induction of apoptosis in human SH-SY5Y cells assessed as altered morphology of nuclear area at 10 to 30 ug/ml measured after 9 hrs by DAPI/phalloidin staining based confocal microscopy; format: functional, cell-based; details: dose 10-30 µg/ml
Euplotes aediculatus [24] = experiment: Potency index, ratio of climacostol LC50 to test compound LC50 for cytotoxicity against Euplotes aediculatus clone EA-III; format: functional
[25] = system: Paramecium multimicronucleatum; experiment: Potency index, ratio of climacostol LC50 to test compound LC50 for cytotoxicity against Paramecium multimicronucleatum clone TL-2; format: functional
Paramecium tetraurelia [26] = experiment: Potency index, ratio of climacostol LC50 to test compound LC50 for cytotoxicity against Paramecium tetraurelia stock 51; format: functional
SH-SY5Y [27] = experiment: Cytotoxicity against human SH-SY5Y cells assessed as cell death at 30 ug/ml measured after 24 hrs by MTT assay relative to control; format: functional

Row | Compound | LC50 (Blepharisma japonicum [1]) | LC50 (Euplotes aediculatus [2]) | LC50 [3] | LC50 (Paramecium tetraurelia [4]) | LC50 (Spirostomum ambiguum) | LC50 (Spirostomum teres [5]) | LC50 (Stentor polymorphus [6]) | LC50 (Blepharisma japonicum [7]) | LC50 (Euplotes aediculatus [8]) | LC50 [9] | LC50 (Paramecium tetraurelia [10]) | LC50 (Spirostomum teres [11]) | LC50 (Stentor polymorphus [12]) | Activity (SH-SY5Y [16]) | IC50 (SH-SY5Y [16]) | other results
1 | CCCCCC/C=C\Cc1cc(O)cc(O)c1O | 3.97 µg/mL (≈ 15.9 µM) | 0.7 µg/mL (≈ 2.8 µM) | 0.58 µg/mL (≈ 2.32 µM) | 0.29 µg/mL (≈ 1.16 µM) | 3.73 µg/mL (≈ 14.9 µM) | 2.24 µg/mL (≈ 8.95 µM) | 1.24 µg/mL (≈ 4.95 µM) | 2.07 µg/mL (≈ 8.27 µM) | 0.23 µg/mL (≈ 0.919 µM) | 0.13 µg/mL (≈ 0.519 µM) | 0.21 µg/mL (≈ 0.839 µM) | 1.86 µg/mL (≈ 7.43 µM) | 0.54 µg/mL (≈ 2.16 µM) | Dose-dependent-effect | 4.72 µg/mL (≈ 18.9 µM) | Activity [13]: 23%; Activity [14]: Toxic; Activity [15]: Toxic; Emax at 10 µg/mL (SH-SY5Y [17]): 90%; Activity (SH-SY5Y [18]; dose 30 µg/ml): 90%; Activity (SH-SY5Y [19]): Active; Activity (SH-SY5Y [20]): Active; Activity (SH-SY5Y [21]): Active; Activity (SH-SY5Y [22]): Active; Activity (SH-SY5Y [23]): Active; RatioLC50 (Euplotes aediculatus [24]): 2.5; RatioLC50 [25]: 2.5; RatioLC50 (Paramecium tetraurelia [26]): 2.5
2 | CCCCCC/C=C\Cc1cc(O)cc(O)c1 | 3.17 µg/mL (≈ 13.5 µM) | 1.7 µg/mL (≈ 7.25 µM) | 1.64 µg/mL (≈ 7 µM) | 1.43 µg/mL (≈ 6.1 µM) | 2.03 µg/mL (≈ 8.66 µM) | 2.04 µg/mL (≈ 8.71 µM) | 1.21 µg/mL (≈ 5.16 µM) | 2.04 µg/mL (≈ 8.71 µM) | 0.83 µg/mL (≈ 3.54 µM) | 0.88 µg/mL (≈ 3.76 µM) | 0.9 µg/mL (≈ 3.84 µM) | 1.68 µg/mL (≈ 7.17 µM) | 0.94 µg/mL (≈ 4.01 µM) | Dose-dependent-effect | 12.9 µg/mL (≈ 54.9 µM) | Emax at 30 µg/mL (SH-SY5Y [27]): 90%; Activity (SH-SY5Y [18]; dose 30.0 µg/ml): inactive
